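How tested: cells in 96-well plates exposed to compound for 48 hours at five concentrations. Definition used: TGI = concentration required for complete inhibition of growth.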
Legend:
Assay in all cases: inhibition of tumour cell growth, NCI panel, 48 h
EKVX NSCLC = test system: EKVX NSCLC
MDA-MB-231 breast = test system: MDA-MB-231 breast
OVCAR-4 ovarian = test system: OVCAR-4 ovarian
OVCAR-5 ovarian = test system: OVCAR-5 ovarian
RPMI-8226 leukemia = test system: RPMI-8226 leukemia
SF-268 CNS = test system: SF-268 CNS
SF-539 CNS = test system: SF-539 CNS
UACC-62 melanoma = test system: UACC-62 melanoma
HCC-2998 colon = test system: HCC-2998 colon
K-562 leukemia = test system: K-562 leukemia

Row | Compound | TGI (EKVX NSCLC) [µM] | TGI (MDA-MB-231 breast) [µM] | TGI (OVCAR-4 ovarian) [µM] | TGI (OVCAR-5 ovarian) [µM] | TGI (RPMI-8226 leukemia) [µM] | TGI (SF-268 CNS) [µM] | TGI (SF-539 CNS) [µM] | TGI (UACC-62 melanoma) [µM] | TGI (HCC-2998 colon) [µM] | TGI (K-562 leukemia) [µM]
1 | CN(CC(=O)O)c1ncc2c(n1)-c1ccccc1SC2 | > 100 | > 100 | > 100 | > 100 | > 100 | > 100 | > 100 | > 100 | – | –
2 | CCCCCCCCCC1(N=[N+]=[N-])C(=O)c2ccccc2N(C)C1=O (stereo unspecified) | – | – | > 100 | 82.9 | > 100 | > 100 | > 100 | 80.5 | 96.2 | > 100
3 | CC(=O)Nc1ccc(N2C(=O)/C(=C\c3cccc(Oc4ccccc4)c3)S(=O)(=O)C2c2ccccc2)cc1 (stereo unspecified) | > 100 | > 100 | > 100 | > 100 | 66.8 | – | 62.5 | > 100 | > 100 | > 100
4 | O=C1C(Cl)N(c2ccc(Cl)cc2)C1c1c[nH]c2ccccc12 (stereo unspecified) | 32.5 | – | > 100 | – | > 100 | > 100 | 37.2 | 68.8 | – | 73.3
5 | CC1(C)CC(=O)c2[nH]c3ccccc3c2CC(=O)NCCc2cn1cn2 | > 100 | > 100 | > 100 | > 100 | – | > 100 | > 100 | > 100 | > 100 | > 100
6 | Cc1cc2c(cc1Cl)SC(NS(=O)(=O)c1ccc(Cl)cc1)=NS2(=O)=O | > 100 | > 100 | > 100 | > 100 | > 100 | > 100 | 73.9 | > 100 | – | > 100
7 | CC(C)(C)[Si](C)(C)OCC1OC(n2ccc(N)nc2=O)C(O[Si](C)(C)C(C)(C)C)C1O[Si](C)(C)C(C)(C)C (stereo unspecified) | 9.83 | 22.7 | 2.21 | 3.58 | – | 7.27 | – | 3.64 | – | –
8 | O=C1NC(=O)C(c2c[nH]c3ccccc23)=C1c1cnc[nH]1 | > 100 | > 100 | > 100 | > 100 | > 100 | > 100 | > 100 | – | – | > 100
9 | COCC1OC(Sc2ccccc2)C(O)C(OC)C1OC (stereo unspecified) | > 100 | > 100 | > 100 | > 100 | – | > 100 | > 100 | > 100 | > 100 | > 100
10 | CCCCS(=O)CCC(N)P(=O)(O)O (stereo unspecified) | > 100 | – | > 100 | > 100 | > 100 | > 100 | – | > 100 | – | > 100
11 | CC(C)(C)OC(=O)N1CCc2[nH][nH]c(=O)c2C1 | > 100 | > 100 | > 100 | – | > 100 | > 100 | > 100 | > 100 | – | > 100
12 | COC(=O)c1cc2c3c(ccc2[nH]1)N(C(=O)c1cc2cc(OC)c(OC)c(OC)c2[nH]1)CC3CCl (stereo unspecified) | > 100 | > 100 | > 100 | > 100 | > 21.5 | > 100 | > 79.2 | > 100 | > 100 | –
13 | CC(=O)c1ccc(NCc2cc(O)ccc2O)cc1 | > 100 | 73.8 | 34.4 | 44.2 | > 100 | – | 33 | 29.8 | – | > 100
14 | COc1cc(OC)c(-c2ccc(OCc3ccccc3)c3c(OC)cc(C)cc23)c2c1C(C)=N[C@H](C)C2 | 4.39 | 4.18 | 4.01 | 4.44 | 3.61 | 3.56 | 4.32 | 3.84 | – | 3.43
15 | O=C(O)c1ccc(N=C(C(=Nc2ccc(C(=O)O)cc2)c2ccccc2)c2ccccc2)cc1 | > 100 | > 100 | > 100 | > 100 | > 100 | > 100 | – | > 100 | > 100 | > 100
16 | Oc1c(C2=NNC(c3ccc(Cl)cc3Cl)C2)ccc2ccccc12 (stereo unspecified) | – | > 100 | > 100 | > 100 | > 100 | > 100 | > 100 | > 100 | > 100 | 76.9
17 | FC(F)(F)c1ccc(N=C/C=C(/Nc2ccc(C(F)(F)F)cc2)c2ccc(Cl)cc2)cc1 | 44.4 | 37.7 | 49.8 | 38.3 | 84.8 | 33.2 | 31.3 | 15.6 | – | > 100

Reference: PubChem BioAssay (NCI)
